This data set concerns zebrafish embryos. As to the kind of experiment: Whole-mount in situ hybridization of gene expression in zebrafish embryos. In kind it is in vivo. Here is the method: This process was carried out basically in accordance with the technique of Thisse et al. See High-resolution In Situ Hybridization to Whole-mount Zebrafish Embryos, Nat. Protcol., 3 (1) 59-69, (2008). The differences were that 5 mg/ml Torula yeast RNA was used as a blocker in the probe hybridization solution, and that 0.5% Blocking Reagent (Roche) was used as a blocker in the antibody reaction solution. The cDNA of the genes used as the probe (the six3.2 gene, the emx1 gene, the pax2.1 gene, the foxg1 gene, and the otx2 gene) were presents of the original provider. As the probe for the lhx2 gene, the one initially cloned by Ando was used. For the probes of the CRBN gene and related genes, primers were designed based on the EST database of zebrafish, and the probes were cloned from a cDNA library.
Expression of Pou5f1 (Oct3/4), Klf4, c-Myc, and HuC (Elavl3) in zebrafish embryos was analyzed by in situ hybridization. The embryos were fixed with 4% paraformaldehyde for 1 hour at room temperature and rinsed with phosphate buffered saline (PBS). The fixed embryos were refixed with 100% methanol and placed at −80° C. for over 12 hours. The embryos were defixed by rinsing with PBS, and the skin was digested with pronase (2 mg/ml), followed by refixation and defixation, and prehybridized in HYB* buffer (50% formamide, 5×SSC, 10 mM Citric acid, 0.1% Tween 20) for 15 minutes and in HYB+(added as 5 mg/ml torula (yeast) RNA, 50 μg/ml heparin to HYB*) for 1 hour at 65° C. After addition of 1 ng/μl of DIG (digoxigenin)-labeled probe, hybridization was performed for overnight at 65° C. After hybridization, the embryos were washed by 50% formamide in 2×SSC for 30 minutes (twice), 2×SSC for 15 minutes, 0.2×SSC for 30 minutes (twice) at 65° C. Then blocking treatment was done by 0.5% purified casein in PBSTw (PBS plus 0.1% Tween 20) at room temperature for 1 hour. After that, immunostaining was performed in 1/4000 dilution of anti-DIG Fab-AP fragment in 0.5% purified casein in PBSTw for 4 hours at room temperature.
After washing with PBSTw for 90 minutes, staining was carried out in the presence of substrate of alkaline phosphatase (Nitro blue tetrazolium and 5-bromo 4-chloro 3-indolyl phosphate) in 100 mM Tris pH 9.5, 50 mM MgCl2, 100 mM NaCl, and 0.1% Tween-20. Reaction was stopped by rapid exchange of reaction buffer to PBSTw and cleaned with glycerol serials (30%, 50%, and 70% in PBS).
Expression of Ascl1a and Pou3f2b in CRBN-overexpressing and Ikaros-knockdown zebrafish embryos was analyzed by in situ hybridization. The embryos were fixed with 4% paraformaldehyde for 1 hour at room temperature and rinsed with phosphate buffered saline (PBS). The fixed embryos were refixed with 100% methanol and placed at −80° C. for over 12 hours. The embryos were defixed by rinsing with PBS, and the skin was digested with pronase (2 mg/ml), followed by refixation and defixation, and prehybridized in HYB* buffer (50% formamide, 5×SSC, 10 mM Citric acid, 0.1% Tween 20) for 15 minutes and in HYB+(added as 5 mg/ml torula (yeast) RNA, 50 μg/ml heparin to HYB*) for 1 hour at 65° C. After addition of 1 ng/μl of DIG (digoxigenin)-labeled probe, hybridization was performed for overnight at 65° C. After hybridization, the embryos were washed by 50% formamide in 2×SSC for 30 minutes twice, 2×SSC for 15 minutes, 0.2×SSC for 30 minutes twice at 65° C. Then blocking treatment was done by 0.5% purified casein in PBSTw (PBS plus 0.1% Tween 20) at room temperature for 1 hour. After that, immunostaining was performed in 1/4000 dilution of anti-DIG Fab-AP fragment in 0.5% purified casein in PBSTw for 4 hours at room temperature.
Expression of Sox2, Pou5f1 (Oct3/4), c-Myc, and Klf4 in zebrafish embryos was analyzed in untreated and CRBN-overexpressing zebrafish embryos by in situ hybridization. Overexpression was performed as follows: single-cell stage embryos were microinjected with 250 ng/μl of capped mRNA synthesized in vitro. […]

We go through 2 substances from patent publication US10272117B2, “Methods of using an activator of cereblon for neural cell expansion and the treatment of central nervous system disorders” (Celgene Corporation, priority 2014, dated 2019).

For the substance “5′-TGTGTTTCTTGTGCTTTTTGCCCAT-3′ (all phosphorodiamidate morpholino (PMO)) [BRD7-knockdown, 25-mer antisense morpholino oligonucleotide (AMO) used for the BRD7 gene knockdown]”, where the note is “10 hpf and 11 hpf”, the “expression of Pou5f1 (Oct3/4) in the second and fourth rhombomeres in the hindbrain” value was “increased”. For the same substance, the “expression of Huc in the brain and spinal cord” value (11 hpf) is “increased”. Moreover, under “15 hpf”, the “number of HuC-positive neural progenitor cells in the brain and spinal cord” value is “increased”. The “number of the telencephalic neurons and the spinal cord neurons” value (16 hpf) is “increased”. Moreover, the “expression of Klf4 in the rostral portion of the neural tube” value (18 hpf) is given as “increased”. For the same substance, where the note is “30 hpf”, the “expression of c-Myc in the tectal proliferation zone and ciliary marginal zone” value is listed as “clearly increased”.

Turning to “5′-TTCCTGTGCCTCCTCAGTCTCCATC-3′ (all phosphorodiamidate morpholino (PMO)) [Ikaros-knockdown, 25-mer antisense morpholino oligonucleotide (AMO) used for the Ikaros gene knockdown]”, the “expression of Ascl1a” value (25 hpf) is reported as “remarkably increased”. Moreover, where the note is “26 hpf”, the “expression of Pou3f2b” value was “increased”.
